Results from patent US7074422B2, “Fungicidal mixtures” (BASF Aktiengesellschaft, priority 2002, dated 2006).

System: Plasmopara viticola
Assay: Activity against Peronospora of vines caused by Plasmopara viticola (persistence test on potted vines)
Type: in vivo
Conditions: individual active compound, vines "Müller-Thurgau", inoculated 3 days after spraying
Method: The active compounds were prepared separately or together as a stock solution comprising 0.25% of active compound in acetone or DMSO. 1% by weight of the emulsifier Uniperol® EM (wetting agent having emulsifying and dispersing action based on ethoxylated alkylphenols) was added, and the mixture was diluted with water to the desired concentration.
Evaluation is carried out by determining the infected leaf areas in percent. These percentages are converted into efficacies. The expected efficacies of the active compound mixtures are determined using Colby's formula [R. S. Colby, Weeds 15, 20-22 (1967)] and compared with the observed efficacies.
Colby's formula: E=x+y−x.y/100 • E expected efficacy, expressed in % of the untreated control, when using the mixture of the active compounds A and B at the concentrations a and b • x efficacy, expressed in % of the untreated control, when using active compound A at a concentration of a • y efficacy, expressed in % of the untreated control, when using active compound B at a concentration of b
The efficacy (E) is calculated as follows using Abbot's formula: E=(1−α/β)·100 • α corresponds to the fungal infection of the treated plants in % and • β corresponds to the fungal infection of the untreated (control) plants in %
An efficacy of 0 means that the infection level of the treated plants corresponds to that of the untreated control plants; an efficacy of 100 means that the treated plants were not infected.
Leaves of potted vines of the cultivar “Müller-Thurgau” were sprayed to runoff point with an aqueous suspension having the concentration of active compound stated below. To be able to assess the persistence of the substances, the plants were, after the spray coating had dried on, placed in a green house for 3 days. Only then were the leaves inoculated with an aqueous zoospore suspension of Plasmopara viticola. The vines were then initially placed in a water-vapor-saturated chamber at 24° C. for 48 hours and then in a greenhouse at 20-30° C. for 5 days. After this period of time, the plants were again placed in a moist chamber for 16 hours to promote sporangiophore eruption. The extent to which the infection had developed on the undersides of the leaves was then determined visually.

| Structure (SMILES) | Efficacy in % of the untreated control (3.75 ppm in the spray liquor) | Efficacy in % of the untreated control (7.5 ppm in the spray liquor) | Efficacy in % of the untreated control (15 ppm in the spray liquor) | Efficacy in % of the untreated control (30 ppm in the spray liquor) |
| --- | --- | --- | --- | --- |
| CCCOC(=O)NCCN(C)C [I, propyl (2-dimethylaminoethyl)carbamate] | 0 % of the untreated control | 0 % of the untreated control | 0 % of the untreated control | 0 % of the untreated control |
| N#Cc1sc2c(=O)c3ccccc3c(=O)c=2sc1C#N [II, dithianon] | – | – | – | 89 % of the untreated control |
